Experimental data reported in PubChem BioAssay AID1963973 (Molecular Pharmacology Branch, DTP, NCI, 2024).

Tested on: 883617-216-R-J1-PDC tumor spheroids, viability
Experiment: Anticancer human tumor 883617-216-R-J1-PDC patient-derived bladder carcinoma cell line growth inhibition [PI3K]
Conditions: spheroids with HUVEC and MSC; for IC50: curve of first compound; for viability, T/C: stronger effect = lower value
Method in brief: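 High-throughput combination screen: PI3K inhibitors crossed with targeted small molecules on complex spheroids of tumor cells, HUVEC and MSCs at 37 degrees C, 5% CO2. Top concentration was at or near clinical Cmax (otherwise 10 microM), with half-log decrements.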

[1] = second compound 0.00316 µM, first compound 0.0316 µM
[2] = second compound 0.00316 µM, first compound 0.1 µM
[3] = second compound 0.00316 µM, first compound 0.316 µM
[4] = second compound 0.00316 µM, first compound 1 µM
[5] = second compound 0.00316 µM, first compound 3.16 µM
[6] = second compound 0.00316 µM, first compound 10 µM
[7] = second compound 0.01 µM, first compound 0.0316 µM
[8] = second compound 0.01 µM, first compound 0.1 µM
[9] = second compound 0.01 µM, first compound 0.316 µM
[10] = second compound 0.01 µM, first compound 1 µM
[11] = second compound 0.01 µM, first compound 3.16 µM
[12] = second compound 0.01 µM, first compound 10 µM
[13] = second compound 0.0316 µM, first compound 0.0316 µM
[14] = second compound 0.0316 µM, first compound 0.1 µM
[15] = second compound 0.0316 µM, first compound 0.316 µM
[16] = second compound 0.0316 µM, first compound 1 µM
[17] = second compound 0.0316 µM, first compound 3.16 µM
[18] = second compound 0.0316 µM, first compound 10 µM
[19] = second compound 0.1 µM, first compound 0.0316 µM
[20] = second compound 0.1 µM, first compound 0.1 µM
[21] = second compound 0.1 µM, first compound 0.316 µM
[22] = second compound 0.1 µM, first compound 1 µM
[23] = second compound 0.1 µM, first compound 3.16 µM
[24] = second compound 0.1 µM, first compound 10 µM
[25] = second compound 0.316 µM, first compound 0.0316 µM
[26] = second compound 0.316 µM, first compound 0.1 µM
[27] = second compound 0.316 µM, first compound 0.316 µM
[28] = second compound 0.316 µM, first compound 1 µM
[29] = second compound 0.316 µM, first compound 3.16 µM
[30] = second compound 0.316 µM, first compound 10 µM
[31] = second compound 1 µM, first compound 0.0316 µM
[32] = second compound 1 µM, first compound 0.1 µM
[33] = second compound 1 µM, first compound 0.316 µM
[34] = second compound 1 µM, first compound 1 µM
[35] = second compound 1 µM, first compound 3.16 µM
[36] = second compound 1 µM, first compound 10 µM
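Note: spheroids exposed to agents for 7 days before the viability read.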

C#Cc1c(F)ccc2cc(O)cc(-c3ncc4c(N5CC6CCC(C5)N6)nc(OCC56CCCN5CC(F)C6)nc4c3F)c12 (stereo unspecified) + COc1c(OCCCN2CCOCC2)ccc2c3n(c(=NC(=O)c4cnc(N)nc4)nc12)CCN3
IC50 (second compound 0.00316 µM): > 10000 nM | IC50 (second compound 0.01 µM): 4880 nM | IC50 (second compound 0.0316 µM): < 31.6 nM | IC50 (second compound 0.1 µM): < 31.6 nM | IC50 (second compound 0.316 µM): < 31.6 nM | IC50 (second compound 1 µM): < 31.6 nM | viability, T/C [1]: 84.7% | viability, T/C [2]: 99.8% | viability, T/C [3]: 88.7% | viability, T/C [4]: 91.3% | viability, T/C [5]: 80% | viability, T/C [6]: 52.1% | viability, T/C [7]: 64.1% | viability, T/C [8]: 64.8% | viability, T/C [9]: 78.9% | viability, T/C [10]: 67.4% | viability, T/C [11]: 55.5% | viability, T/C [12]: 41% | viability, T/C [13]: 37% | viability, T/C [14]: 45.5% | viability, T/C [15]: 34.4% | viability, T/C [16]: 34% | viability, T/C [17]: 33.6% | viability, T/C [18]: 22.8% | viability, T/C [19]: 16.4% | viability, T/C [20]: 17.1% | viability, T/C [21]: 14.6% | viability, T/C [22]: 15.6% | viability, T/C [23]: 12.2% | viability, T/C [24]: 11.4% | viability, T/C [25]: 5.31% | viability, T/C [26]: 5% | viability, T/C [27]: 4.47% | viability, T/C [28]: 4.9% | viability, T/C [29]: 3.89% | viability, T/C [30]: 2.71% | viability, T/C [31]: 3.49% | viability, T/C [32]: 3.22% | viability, T/C [33]: 2.69% | viability, T/C [34]: 2.82% | viability, T/C [35]: 2.98% | viability, T/C [36]: 0.66%

C=CC(=O)N1CCN(c2nc(=O)n(-c3c(C)ccnc3C(C)C)c3nc(-c4c(O)cccc4F)c(F)cc23)C(C)C1 (stereo unspecified) + COc1c(OCCCN2CCOCC2)ccc2c3n(c(=NC(=O)c4cnc(N)nc4)nc12)CCN3
IC50 (second compound 0.00316 µM): < 31.6 nM | IC50 (second compound 0.01 µM): < 31.6 nM | IC50 (second compound 0.0316 µM): < 31.6 nM | IC50 (second compound 0.1 µM): < 31.6 nM | IC50 (second compound 0.316 µM): < 31.6 nM | IC50 (second compound 1 µM): < 31.6 nM | viability, T/C [1]: 54.8% | viability, T/C [2]: 40.3% | viability, T/C [3]: 44% | viability, T/C [4]: 46.3% | viability, T/C [5]: 52.3% | viability, T/C [6]: 53.9% | viability, T/C [7]: 46% | viability, T/C [8]: 34.9% | viability, T/C [9]: 33.4% | viability, T/C [10]: 41.1% | viability, T/C [11]: 43.5% | viability, T/C [12]: 38.7% | viability, T/C [13]: 21.4% | viability, T/C [14]: 19.8% | viability, T/C [15]: 16.6% | viability, T/C [16]: 22.3% | viability, T/C [17]: 24.1% | viability, T/C [18]: 24.5% | viability, T/C [19]: 8.54% | viability, T/C [20]: 3.86% | viability, T/C [21]: 6.45% | viability, T/C [22]: 8.64% | viability, T/C [23]: 10.2% | viability, T/C [24]: 9.28% | viability, T/C [25]: 1.88% | viability, T/C [26]: 1.7% | viability, T/C [27]: 1.81% | viability, T/C [28]: 2.12% | viability, T/C [29]: 2.85% | viability, T/C [30]: 2.77% | viability, T/C [31]: 1.07% | viability, T/C [32]: 0.62% | viability, T/C [33]: 0.69% | viability, T/C [34]: 0.95% | viability, T/C [35]: 1.99% | viability, T/C [36]: 0.95%

CC(Cn1ccc(-c2ccc(C#N)c(Cl)c2)n1)NC(=O)c1cc(C(C)O)[nH]n1 (stereo unspecified) + COc1c(OCCCN2CCOCC2)ccc2c3n(c(=NC(=O)c4cnc(N)nc4)nc12)CCN3
IC50 (second compound 0.00316 µM): > 10000 nM | IC50 (second compound 0.01 µM): > 10000 nM | IC50 (second compound 0.0316 µM): < 31.6 nM | IC50 (second compound 0.1 µM): < 31.6 nM | IC50 (second compound 0.316 µM): < 31.6 nM | IC50 (second compound 1 µM): < 31.6 nM | viability, T/C [1]: 74.1% | viability, T/C [2]: 75.2% | viability, T/C [3]: 83.8% | viability, T/C [4]: 96.2% | viability, T/C [5]: 83.8% | viability, T/C [6]: 79.3% | viability, T/C [7]: 68.8% | viability, T/C [8]: 70.4% | viability, T/C [9]: 70.3% | viability, T/C [10]: 65.6% | viability, T/C [11]: 65.7% | viability, T/C [12]: 64.2% | viability, T/C [13]: 31.1% | viability, T/C [14]: 33% | viability, T/C [15]: 37.3% | viability, T/C [16]: 29.4% | viability, T/C [17]: 35.7% | viability, T/C [18]: 30.2% | viability, T/C [19]: 14.9% | viability, T/C [20]: 11% | viability, T/C [21]: 14.6% | viability, T/C [22]: 19% | viability, T/C [23]: 13.3% | viability, T/C [24]: 11.6% | viability, T/C [25]: 5.01% | viability, T/C [26]: 4.53% | viability, T/C [27]: 4.26% | viability, T/C [28]: 4.08% | viability, T/C [29]: 5.69% | viability, T/C [30]: 4.16% | viability, T/C [31]: 3.17% | viability, T/C [32]: 2.54% | viability, T/C [33]: 3.2% | viability, T/C [34]: 3.42% | viability, T/C [35]: 4.42% | viability, T/C [36]: 4.01%
